pIC50: −log10 of the molar value.
Columns and labels:
MCF7 = assay: cells; details: Homo sapiens, MCF7, 48 h
[1] = target: Epidermal growth factor receptor (Homo sapiens, UniProt P00533); assay: biochemical
Description: Inhibition of cloned EGFR autophosphorylation expressed in baculovirus-infected Sf9 cells by solid-phase ELISA

[2] = target: Receptor tyrosine-protein kinase erbB-2 (Homo sapiens, UniProt P04626); assay: biochemical
Sequence of Receptor tyrosine-protein kinase erbB-2 (P04626 whole entry): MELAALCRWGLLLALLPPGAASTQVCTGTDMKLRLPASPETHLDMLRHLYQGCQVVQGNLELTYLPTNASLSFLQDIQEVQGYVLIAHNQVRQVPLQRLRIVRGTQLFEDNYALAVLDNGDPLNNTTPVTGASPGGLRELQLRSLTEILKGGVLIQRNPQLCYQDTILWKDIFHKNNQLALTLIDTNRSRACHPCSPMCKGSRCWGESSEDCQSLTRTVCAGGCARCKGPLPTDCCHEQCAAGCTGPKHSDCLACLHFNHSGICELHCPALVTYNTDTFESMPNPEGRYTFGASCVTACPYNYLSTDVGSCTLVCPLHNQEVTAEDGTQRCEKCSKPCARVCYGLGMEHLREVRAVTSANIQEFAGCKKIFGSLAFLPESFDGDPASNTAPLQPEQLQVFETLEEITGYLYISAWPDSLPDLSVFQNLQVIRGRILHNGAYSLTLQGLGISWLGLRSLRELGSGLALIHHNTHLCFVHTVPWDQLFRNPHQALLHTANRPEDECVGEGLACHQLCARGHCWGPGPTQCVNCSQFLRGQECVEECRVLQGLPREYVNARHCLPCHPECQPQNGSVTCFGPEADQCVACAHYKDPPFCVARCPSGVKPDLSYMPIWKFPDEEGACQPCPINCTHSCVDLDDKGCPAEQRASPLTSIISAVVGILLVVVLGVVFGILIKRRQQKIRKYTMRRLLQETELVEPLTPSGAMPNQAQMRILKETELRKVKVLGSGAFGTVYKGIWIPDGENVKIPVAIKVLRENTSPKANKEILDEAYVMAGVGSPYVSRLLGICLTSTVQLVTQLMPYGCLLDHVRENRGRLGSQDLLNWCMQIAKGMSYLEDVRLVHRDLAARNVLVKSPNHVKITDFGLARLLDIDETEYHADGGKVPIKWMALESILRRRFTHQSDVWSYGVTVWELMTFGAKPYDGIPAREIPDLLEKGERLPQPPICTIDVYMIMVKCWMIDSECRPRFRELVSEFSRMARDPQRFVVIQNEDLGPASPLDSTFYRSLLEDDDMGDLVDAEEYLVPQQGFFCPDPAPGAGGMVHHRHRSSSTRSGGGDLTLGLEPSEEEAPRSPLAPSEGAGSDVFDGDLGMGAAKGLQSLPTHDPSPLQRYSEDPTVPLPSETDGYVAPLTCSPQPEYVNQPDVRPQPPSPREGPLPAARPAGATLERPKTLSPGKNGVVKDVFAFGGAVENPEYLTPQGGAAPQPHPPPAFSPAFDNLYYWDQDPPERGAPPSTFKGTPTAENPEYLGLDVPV
Description: Inhibition of human cloned HER2 autophosphorylation expressed in baculovirus-infected Sf9 cells by solid-phase ELISA

Sequence of Epidermal growth factor receptor (P00533 whole entry): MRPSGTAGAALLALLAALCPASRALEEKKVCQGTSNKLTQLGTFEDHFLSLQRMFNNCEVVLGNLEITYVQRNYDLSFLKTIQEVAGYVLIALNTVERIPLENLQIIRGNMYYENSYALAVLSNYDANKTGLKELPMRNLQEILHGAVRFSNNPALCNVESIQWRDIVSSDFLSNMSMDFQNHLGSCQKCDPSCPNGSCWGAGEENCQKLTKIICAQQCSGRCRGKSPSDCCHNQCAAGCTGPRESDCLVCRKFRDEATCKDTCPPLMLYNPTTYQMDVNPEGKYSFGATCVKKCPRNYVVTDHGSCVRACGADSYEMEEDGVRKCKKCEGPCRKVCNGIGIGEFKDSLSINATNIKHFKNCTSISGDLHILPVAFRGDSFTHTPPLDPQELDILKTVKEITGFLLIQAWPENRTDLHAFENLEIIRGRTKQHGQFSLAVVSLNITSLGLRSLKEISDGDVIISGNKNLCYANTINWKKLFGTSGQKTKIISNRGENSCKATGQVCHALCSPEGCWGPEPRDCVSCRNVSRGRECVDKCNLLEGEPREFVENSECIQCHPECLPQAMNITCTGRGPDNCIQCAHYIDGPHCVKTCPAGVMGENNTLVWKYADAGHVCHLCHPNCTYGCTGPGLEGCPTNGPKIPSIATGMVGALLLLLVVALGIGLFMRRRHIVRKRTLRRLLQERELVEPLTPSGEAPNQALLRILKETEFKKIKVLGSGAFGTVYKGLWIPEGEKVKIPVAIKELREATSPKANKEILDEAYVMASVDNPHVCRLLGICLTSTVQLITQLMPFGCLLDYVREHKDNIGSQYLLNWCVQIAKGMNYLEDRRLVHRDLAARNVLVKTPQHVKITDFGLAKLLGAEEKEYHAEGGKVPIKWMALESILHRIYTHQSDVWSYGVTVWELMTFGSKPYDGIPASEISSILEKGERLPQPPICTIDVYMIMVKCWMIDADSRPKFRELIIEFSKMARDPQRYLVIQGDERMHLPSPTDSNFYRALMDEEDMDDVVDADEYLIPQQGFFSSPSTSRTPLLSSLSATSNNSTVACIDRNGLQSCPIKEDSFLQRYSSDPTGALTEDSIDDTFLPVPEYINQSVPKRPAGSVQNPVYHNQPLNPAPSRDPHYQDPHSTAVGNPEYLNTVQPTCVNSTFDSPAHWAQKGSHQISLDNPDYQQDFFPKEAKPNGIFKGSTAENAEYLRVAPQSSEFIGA

Compound | pIC50 (MCF7) | pIC50 [1] | pIC50 [2]
Cc1cc(C)c(O)c(CN(Cc2ccc(O)cc2)C(=O)Nc2ccccc2)c1 | 5.07 | 5.03 | 4.79
Cc1cc(C)c(O)c(CN(Cc2ccccc2)C(=S)Nc2ccccc2)c1 | 4.47 | < 4.30 | < 4.30
CCCCN(Cc1cccc(Cl)c1O)C(=S)Nc1ccccc1 | 5.13 | 4.74 | 4.49
Oc1c(Cl)cccc1CN(Cc1ccc(F)cc1)C(=S)Nc1ccccc1 | 6.28 | 6.17 | 5.85
Oc1c(Br)cccc1CN(Cc1ccc(F)cc1)C(=S)Nc1ccccc1 | 6.14 | 6.01 | 5.73
CCCCN(Cc1cc(Br)cc(Br)c1O)C(=S)Nc1ccccc1 | 4.78 | 4.50 | < 4.30
Cc1cccc(CN(Cc2ccc(F)cc2)C(=S)Nc2ccccc2)c1O | 5.42 | 5.07 | 4.81
O=C(Nc1ccccc1)N(Cc1ccc(F)cc1)Cc1cc(Cl)cc(Cl)c1O | 5.55 | 5.38 | 5.02
Cc1cccc(CN(Cc2ccc(O)cc2)C(=O)Nc2ccccc2)c1O | 5.28 | 5.12 | 4.73
O=C(Nc1ccccc1)N(Cc1ccc(O)cc1)Cc1cc(Cl)cc(Cl)c1O | 5.96 | 5.73 | 5.66
O=C(Nc1ccccc1)N(Cc1ccc(O)cc1)Cc1cccc(Br)c1O | 6.60 | 5.97 | 5.58
CCCCN(Cc1cc(Br)cc(Br)c1O)C(=O)Nc1ccccc1 | 4.46 | < 4.30 | < 4.30
CCCCN(Cc1cccc(Br)c1O)C(=O)Nc1ccccc1 | 5.04 | 4.43 | < 4.30
CCCCN(Cc1cc(C)cc(C)c1O)C(=O)Nc1ccccc1 | 4.59 | < 4.30 | < 4.30
Oc1ccc(CN(Cc2cc(Cl)cc(Cl)c2O)C(=S)Nc2ccccc2)cc1 | 6.66 | 6.25 | 5.91
CCCCN(Cc1cccc(C)c1O)C(=S)Nc1ccccc1 | 4.63 | 4.36 | < 4.30
CCCCN(Cc1cc(Cl)cc(Cl)c1O)C(=S)Nc1ccccc1 | 4.89 | 4.61 | 4.40
CCCCN(Cc1cccc(Cl)c1O)C(=O)Nc1ccccc1 | 5.03 | 4.49 | < 4.30

Compound | pIC50 (MCF7) | pIC50 [1] | pIC50 [2]
CCCCN(Cc1cccc(C)c1O)C(=O)Nc1ccccc1 | 4.28 | < 4.30 | < 4.30
CCCCN(Cc1cc(Cl)cc(Cl)c1O)C(=O)Nc1ccccc1 | 4.52 | < 4.30 | < 4.30
Oc1ccc(CN(Cc2cc(Br)cc(Br)c2O)C(=S)Nc2ccccc2)cc1 | 6.44 | 6.06 | 5.65
Oc1c(Cl)cc(Cl)cc1CN(Cc1ccc(F)cc1)C(=S)Nc1ccccc1 | 5.96 | 5.87 | 5.19
Oc1c(Br)cc(Br)cc1CN(Cc1ccc(F)cc1)C(=S)Nc1ccccc1 | 5.77 | 5.75 | 5.17
Cc1cc(C)c(O)c(CN(Cc2ccc(F)cc2)C(=O)Nc2ccccc2)c1 | 5.18 | 4.56 | < 4.30
O=C(Nc1ccccc1)N(Cc1ccc(O)cc1)Cc1cccc(Cl)c1O | 6.72 | 6.02 | 5.64
Cc1cc(C)c(O)c(CN(Cc2ccc(F)cc2)C(=S)Nc2ccccc2)c1 | 4.98 | 4.71 | 4.42
Cc1cc(C)c(O)c(CN(Cc2ccc(O)cc2)C(=S)Nc2ccccc2)c1 | 5.59 | 5.23 | 5.02
O=C(Nc1ccccc1)N(Cc1ccc(F)cc1)Cc1cccc(Cl)c1O | 5.96 | 5.70 | 5.46
O=C(Nc1ccccc1)N(Cc1ccc(F)cc1)Cc1cccc(Br)c1O | 5.85 | 5.65 | 5.29
Oc1ccc(CN(Cc2cccc(Cl)c2O)C(=S)Nc2ccccc2)cc1 | 7.52 | 7.10 | 6.46
Cc1cccc(CN(Cc2ccc(F)cc2)C(=O)Nc2ccccc2)c1O | 5.26 | 4.66 | 4.42
O=C(Nc1ccccc1)N(Cc1ccc(O)cc1)Cc1cc(Br)cc(Br)c1O | 5.88 | 5.95 | 5.34
O=C(Nc1ccccc1)N(Cc1ccc(F)cc1)Cc1cc(Br)cc(Br)c1O | 5.44 | 5.33 | 4.91
Oc1ccc(CN(Cc2cccc(Br)c2O)C(=S)Nc2ccccc2)cc1 | 7.22 | 6.92 | 6.18
Cc1cccc(CN(Cc2ccc(O)cc2)C(=S)Nc2ccccc2)c1O | 5.92 | – | 5.15
CCCCN(Cc1cccc(Br)c1O)C(=S)Nc1ccccc1 | 4.85 | 4.66 | 4.40
